Results from publication PMC9196629, “Synthesis, Characterization and Antitumor Mechanism Investigation of Heterometallic Ru(Ⅱ)-Re(Ⅰ) Complexes” (Frontiers in Chemistry, 2022).

How the values were obtained:
Type in all cases: cell-based, human
HeLa cells [1] = test: Intracellular ROS by H2DCFDA staining; details: 6 h, confocal microscopy
Procedure: ROS are natural by-product of normal oxygen metabolism and play an important role in cellular signaling transduction and homeostasis in vivo ([Casas et al., 2020]). It has been shown that the excessive production of ROS may cause oxidative stress and lead to cell death ([Jia et al., 2020]). Herein, cells were treated with RuRe-1 and RuRe-2 for 6 h and then stained with 2′,7′-dichlorodihydrouorescein diacetate (H2DCFDA). H2DCFDA is non-fluorescent and can be oxidized by intracellular ROS to highly fluorescent 2′,7′-dichlorofluorescein (DCF) ([Abdel Hadi et al., 2021]). The intensity of green fluorescence can respond to the accumulation of intracellular ROS.
FIGURE 7 RuRe-1 and RuRe-2 induced the elevation of intracellular ROS levels examined by confocal microscopy with H2DCFDA staining (λ ex = 488 nm, λ em = 530 ± 20 nm). The incubation time of the compounds was 6 h. Scale bar: 20 μm.
Measurement of intracellular ROS. After HeLa cells were adhered to the confocal dishes, the medium was replaced with medium containing the indicated concentrations of RuRe-1 and RuRe-2 for 6 h. Subsequently, the medium was aspirated and cells were washed three times with serum-free DMEM. Then, cells were co-incubated with fluorescent dye H2DCFDA (10 μM) at 37 °C for 10 mins and washed three times with PBS and visualized by a confocal microscope (λex = 488 nm, λem = 530 ± 20 nm).

HeLa cells [2] = test: Annexin V-FITC/PI double-staining apoptosis assay by flow cytometry; details: 24 h, control 1.81%
Excerpt: The ability of RuRe-1 and RuRe-2 to induce apoptosis in HeLa cells was further verified using Annexin V-FITC/PI (FITC: fluorescein isothiocyanate; PI: propidium iodide) double-staining. In the early stage of apoptosis, the surface of the cell membrane is […], at which point the phosphatidylserine on the surface of the apoptotic cell flips from the inner cell membrane to the outer cell membrane, where it can be labelled by Annexin V ([Jan and Chaudhry, 2019]). The membrane permeability of PI is poor and thus only necrotic cells can be labelled ([Zec et al., 2014]).
FIGURE 3 RuRe-1 and RuRe-2 induced HeLa cells apoptosis measured by flow cytometry with Annexin V/PI staining. The incubation time of the compounds was 24 h. […]

HeLa cells [3] = test: Colony formation assay; details: 24 h treatment then 7 days
Procedure: The consequence of increased local cell migration is distal invasion, and the clonal growth of distal invasive cells will produce a second tumor ([Wang et al., 2017]). We further investigated the ability of RuRe-1 and RuRe-2 to inhibit the formation of cell colonies by cell colony formation assay.
Colony forming assay. HeLa cells were cultured in 6-well plates at a density of 500 cells per well. After cells had adhered, the medium was replaced with medium containing the indicated concentrations of RuRe-1 and RuRe-2 for 24 h. Subsequently, the medium was replaced with fresh medium and the cells were cultured for 7 days to form colonies. The colonies formed were fixed with 4% paraformaldehyde, and stained with crystal violet (0.005%). Finally, colonies were calculated and the images were taken using digital camera.

Structure (SMILES)	intracellular ROS levels (H2DCFDA) (HeLa cells [1])	percentage of apoptotic cells (early apoptotic + late apoptotic) (HeLa cells [2]; 10.0 μM)	cell populations (colonies) compared to the control group (HeLa cells [3]; 7.5 μM)	percentage of apoptotic cells (early apoptotic + late apoptotic) (HeLa cells [2]; 12.4 μM)	cell populations (colonies) compared to the control group (HeLa cells [3]; 9.3 μM)
F[P-](F)(F)(F)(F)F.F[P-](F)(F)(F)(F)F.F[P-](F)(F)(F)(F)F.[C-]#[O+].[C-]#[O+].[C-]#[O+].[Re+].[Ru+2].c1ccc(-c2ccnc3c2ccc2c(-c4ccccc4)ccnc23)cc1.c1cnc2c(c1)c1nc(-c3ccncc3)[nH]c1c1cccnc12.c1cnc2c(c1)ccc1cccnc12.c1cnc2c(c1)ccc1cccnc12 [RuRe-2, [Ru(phen)2LRe(CO)3(DIP)](PF6)3]	increase in intracellular ROS levels in a concentration-dependent manner	22.26%	3.9%		
F[P-](F)(F)(F)(F)F.F[P-](F)(F)(F)(F)F.F[P-](F)(F)(F)(F)F.[C-]#[O+].[C-]#[O+].[C-]#[O+].[Re+].[Ru+2].c1ccc(-c2ccccn2)nc1.c1ccc(-c2ccccn2)nc1.c1ccc(-c2ccnc3c2ccc2c(-c4ccccc4)ccnc23)cc1.c1cnc2c(c1)c1nc(-c3ccncc3)[nH]c1c1cccnc12 [RuRe-1, [Ru(bpy)2LRe(CO)3(DIP)](PF6)3]	increase in intracellular ROS levels in a concentration-dependent manner			22.38%	4.8%
